Results: paper PMC5537602, “TRPA1 channel mediates organophosphate-induced delayed neuropathy” (Cell Discovery, 2017)
Entries after “also recorded” stand apart in the source; their conditions may differ.

Assays:
[1] = system: mice; assay: Transmission electron microscopy of local nerve fibers in mice; type: in vivo, mouse
Procedure: For mice, subcutaneous tissue from the site of exposure was removed and fixed by immediate immersion in ice-cold 2.5% glutaraldehyde. Subsequently, the samples were post-fixed in 1% OsO4 for 1 h, dehydrated with an ethanol series and embedded in epon resin. Sixty-nanometer ultra-thin sections were double stained with lead citrate and uranyl acetate and examined using an electron microscopy.

[2] = system: hens; assay: Transmission electron microscopy of hen spinal cord and sciatic nerve; type: in vivo
Procedure: For hens, the animals were anesthetized with sodium pentobarbital (100 mg kg^−1) and killed 21 days after exposure to TOCP and malathion. They were then perfused with normal saline followed immediately by 4% paraformaldehyde. The lumbar spinal cord at approximately the L2-L3 level and the sciatic nerve of the left leg were removed and fixed by immersion in ice-cold 2.5% glutaraldehyde. Subsequently, the samples were post-fixed in 1% OsO4 for 1 h, dehydrated with the ethanol series, and embedded in epon resin. Sixty-nanometer ultra-thin sections were double stained with lead citrate and uranyl acetate and examined with an electron microscopy.

[3] = system: mouse DRG neurons; assay: Whole-cell patch-clamp of small-diameter DRG neurons; type: cell-based
Procedure: DRG neurons were isolated from young C57 BL/6 mice (4–5 weeks). The sections of thoracic and lumbar DRG neurons were rapidly isolated in calcium and magnesium-free PBS with low temperature conditions (ice-bath environment). The isolated tissues were cut into pieces with scissor and incubated for 30 min with 0.1% collagenase and 0.025% trypsin which were diluted by DMEM-F12 at 37 °C. After digestion, neurons were gently dissociated using Pasteur pipettes and then plated onto poly-D-lysine pre-coated glass cover slips. DRG neurons were cultured for 24 h before use.
(§1) Whole-cell patch-clamp recordings in DRG neurons (small diameter, […]) and HEK293 cells were operated at room temperature (23–25 °C) using EPC-10 amplifier and Patch Master Software (HEKA). […] Currents were sampled at 10 kHz and low-pass filtered at 2.9 kHz. The internal solution was as follows (in mM): 140 CsCl, 10 HEPES, 5 EGTA, 0.1 CaCl2 and 1 MgCl2, with pH adjusted to 7.2 by CsOH and osmolarity 295–300 mOsm. The calcium-free external solution contained (in mM) 140 NaCl, 5 KCl, 0.5 EGTA, 1 MgCl2, 10 Glucose and 10 HEPES, with pH adjusted to 7.4 by NaOH and osmolarity 300–310 mOsm. The 0.5 mM EGTA was replaced by 2 mM CaCl2 for the recordings in DRG neurons. TRPA1 currents development was monitored with repetitive injections of 300 ms duration voltage ramps from −100 to +100 mV every 2 s and the holding potential was set to 0 mV for 50 ms, existing in both sides of the voltage ramp. To record inward currents in DRG neurons, we conducted voltage clamp at holding membrane potential of −70 mV. Solutions were switched using a gravity-fed continuous focal perfusion system.

[4] = target: mTRPA1 (Mus musculus, UniProt Q8BLA8); assay: FDSS Ca2+-influx assay, HEK293 cells stably expressing mTRPA1; type: cell-based; design: expressed in transfected cells; conditions: HEK293 cells, change in [Ca2+]i; read-out: EC50, activation of mTRPA1
Chain of mTRPA1 (Q8BLA8 whole entry): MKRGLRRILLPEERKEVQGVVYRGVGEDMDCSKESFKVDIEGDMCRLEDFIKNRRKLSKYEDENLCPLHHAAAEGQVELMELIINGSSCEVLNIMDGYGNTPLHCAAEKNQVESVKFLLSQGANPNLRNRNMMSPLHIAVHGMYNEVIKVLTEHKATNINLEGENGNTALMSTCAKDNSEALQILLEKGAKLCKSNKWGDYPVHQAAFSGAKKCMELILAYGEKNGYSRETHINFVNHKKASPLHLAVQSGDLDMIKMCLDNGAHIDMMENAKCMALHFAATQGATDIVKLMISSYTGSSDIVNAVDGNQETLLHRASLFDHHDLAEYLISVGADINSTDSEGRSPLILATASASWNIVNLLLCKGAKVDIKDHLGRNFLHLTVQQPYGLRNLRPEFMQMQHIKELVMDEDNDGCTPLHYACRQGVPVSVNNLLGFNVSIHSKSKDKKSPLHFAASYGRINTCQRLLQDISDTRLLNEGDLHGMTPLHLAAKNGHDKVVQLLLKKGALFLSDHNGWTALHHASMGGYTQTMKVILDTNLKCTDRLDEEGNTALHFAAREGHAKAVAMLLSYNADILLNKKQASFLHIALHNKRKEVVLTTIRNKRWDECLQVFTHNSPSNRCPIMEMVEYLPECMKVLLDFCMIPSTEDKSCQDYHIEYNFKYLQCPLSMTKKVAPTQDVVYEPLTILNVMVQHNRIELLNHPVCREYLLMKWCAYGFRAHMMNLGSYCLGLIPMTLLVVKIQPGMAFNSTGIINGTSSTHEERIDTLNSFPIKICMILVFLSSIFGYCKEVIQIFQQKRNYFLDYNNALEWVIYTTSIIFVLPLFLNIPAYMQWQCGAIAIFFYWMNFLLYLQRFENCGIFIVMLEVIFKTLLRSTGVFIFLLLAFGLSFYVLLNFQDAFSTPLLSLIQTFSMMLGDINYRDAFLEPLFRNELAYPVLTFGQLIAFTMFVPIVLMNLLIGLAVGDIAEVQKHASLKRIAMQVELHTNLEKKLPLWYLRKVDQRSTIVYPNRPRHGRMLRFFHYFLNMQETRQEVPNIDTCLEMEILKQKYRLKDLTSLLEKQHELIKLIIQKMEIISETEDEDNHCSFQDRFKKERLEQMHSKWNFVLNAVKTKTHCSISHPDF
Procedure: Ca^2+-influx assays were carried out using HEK293 cells stably expressing mTRPA1 channels with an FDSS screening system (Hamamatsu, Japan). Before the start of the assay, HEK293-mTRPA1 cells were plated onto poly-D-Lysine (40 μg ml^−1) coated 96-well black clear bottom plate with the cell density of 300 000 cells per milliliter in DMEM supplemented with 10% (vol/vol) fetal bovine serum, 200 μg ml^−1 Hygromycin B, 15 μg ml^−1 Blasticidin S HCL and 0.3 μg ml^−1 doxycycline, which could induce the expression of mTRPA1. The 96-well plate was then put in sterile incubator overnight. The following day, Ca^2+ influx dye Fluo-4/AM stock was diluted to 2 μM with bath solution, and added (50 μl per well) in place of the culture medium. The plate was then incubated to load the Fluo-4/AM into cells for 60 min at 37 °C in dark environment. During the incubation, we prepared the compound plate (96-well) and the margin of plate was set as blank control due to the fringing effect. At the end of dye loading period, the remnant dye was removed using bath solution to wash the 96-well cell plate twice and then add 80 μl bath solution per well.

[5] = target: T1, TRPV4 (Homo sapiens, UniProt Q9HBA0); assay: Calcium fluorescence signal, HEK293 cells overexpressing TRPV4; type: cell-based; conditions: 10 μM
T1 construct: expressed in transfected cells; host or cells: HEK293
T1 sequence (Q9HBA0 whole entry, species assumed): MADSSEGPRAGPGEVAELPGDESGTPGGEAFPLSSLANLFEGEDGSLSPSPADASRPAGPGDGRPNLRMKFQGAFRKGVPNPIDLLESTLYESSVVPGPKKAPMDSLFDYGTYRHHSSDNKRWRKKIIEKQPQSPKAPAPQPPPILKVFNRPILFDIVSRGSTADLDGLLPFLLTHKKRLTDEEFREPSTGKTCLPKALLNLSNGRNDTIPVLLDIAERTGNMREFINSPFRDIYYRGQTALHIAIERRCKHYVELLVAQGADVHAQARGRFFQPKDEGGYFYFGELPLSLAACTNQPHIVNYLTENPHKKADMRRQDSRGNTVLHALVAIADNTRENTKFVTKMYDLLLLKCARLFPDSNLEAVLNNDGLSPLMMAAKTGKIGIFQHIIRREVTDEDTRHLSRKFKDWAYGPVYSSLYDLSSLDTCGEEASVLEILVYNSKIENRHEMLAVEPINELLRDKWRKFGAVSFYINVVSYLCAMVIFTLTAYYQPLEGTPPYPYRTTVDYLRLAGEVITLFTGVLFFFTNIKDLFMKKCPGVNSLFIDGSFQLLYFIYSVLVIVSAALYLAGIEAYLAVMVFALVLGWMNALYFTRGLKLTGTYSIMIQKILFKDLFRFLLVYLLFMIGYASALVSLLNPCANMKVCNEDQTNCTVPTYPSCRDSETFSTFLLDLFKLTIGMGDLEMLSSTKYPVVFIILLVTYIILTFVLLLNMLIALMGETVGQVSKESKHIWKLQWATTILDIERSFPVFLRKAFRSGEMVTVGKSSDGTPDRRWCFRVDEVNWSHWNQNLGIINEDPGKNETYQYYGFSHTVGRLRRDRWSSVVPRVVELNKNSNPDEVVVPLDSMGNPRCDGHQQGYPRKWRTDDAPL
Procedure: Figure S3. Specificity of malathion for TRPA1 channels. (A-F) Time course of the fluorescence signal induced by malathion (Mala, 10 μM) and the indicated positive agonists (10 μM) in HEK293 cells overexpressing TRPV1 (A), TRPV3 (B), TRPV4 (C), TRPM8 (D), TRPC4 (E) and TRPC5 (F) channels. The fluorescence signals are scaled as F/F0. EC indicates external solution. […]
cells for each tested TRP channel. All bars are presented as the mean ± SEM. […]

[6] = system: mice; assay: Behavioral testing of mice (paw-licking time after intraplantar injection); type: in vivo, mouse
Procedure: The chosen mice were allowed to acclimate to the experimental environment for at least 2 h before testing. Intraplantar injection of 5% AITC and 30% malathion (10 μl) was achieved using separate injectors. Spontaneous pain evoked by the compounds was assessed by measuring the time (s) the mice spent on licking. For the HC030031 groups, 200 mg kg^−1 HC030031 was intragastrically administered, and then the test was conducted after 1 h. The testing phase was divided into two parts: 0–10 min and 11–60 min.

[7] = target: T2, hTRPA1 (Homo sapiens, UniProt O75762); assay: cell-based; type: cell-based
T2 construct: expressed in transfected cells; host or cells: HEK293, transient, EGFP plasmid co-transfected
T2 sequence (O75762 whole entry): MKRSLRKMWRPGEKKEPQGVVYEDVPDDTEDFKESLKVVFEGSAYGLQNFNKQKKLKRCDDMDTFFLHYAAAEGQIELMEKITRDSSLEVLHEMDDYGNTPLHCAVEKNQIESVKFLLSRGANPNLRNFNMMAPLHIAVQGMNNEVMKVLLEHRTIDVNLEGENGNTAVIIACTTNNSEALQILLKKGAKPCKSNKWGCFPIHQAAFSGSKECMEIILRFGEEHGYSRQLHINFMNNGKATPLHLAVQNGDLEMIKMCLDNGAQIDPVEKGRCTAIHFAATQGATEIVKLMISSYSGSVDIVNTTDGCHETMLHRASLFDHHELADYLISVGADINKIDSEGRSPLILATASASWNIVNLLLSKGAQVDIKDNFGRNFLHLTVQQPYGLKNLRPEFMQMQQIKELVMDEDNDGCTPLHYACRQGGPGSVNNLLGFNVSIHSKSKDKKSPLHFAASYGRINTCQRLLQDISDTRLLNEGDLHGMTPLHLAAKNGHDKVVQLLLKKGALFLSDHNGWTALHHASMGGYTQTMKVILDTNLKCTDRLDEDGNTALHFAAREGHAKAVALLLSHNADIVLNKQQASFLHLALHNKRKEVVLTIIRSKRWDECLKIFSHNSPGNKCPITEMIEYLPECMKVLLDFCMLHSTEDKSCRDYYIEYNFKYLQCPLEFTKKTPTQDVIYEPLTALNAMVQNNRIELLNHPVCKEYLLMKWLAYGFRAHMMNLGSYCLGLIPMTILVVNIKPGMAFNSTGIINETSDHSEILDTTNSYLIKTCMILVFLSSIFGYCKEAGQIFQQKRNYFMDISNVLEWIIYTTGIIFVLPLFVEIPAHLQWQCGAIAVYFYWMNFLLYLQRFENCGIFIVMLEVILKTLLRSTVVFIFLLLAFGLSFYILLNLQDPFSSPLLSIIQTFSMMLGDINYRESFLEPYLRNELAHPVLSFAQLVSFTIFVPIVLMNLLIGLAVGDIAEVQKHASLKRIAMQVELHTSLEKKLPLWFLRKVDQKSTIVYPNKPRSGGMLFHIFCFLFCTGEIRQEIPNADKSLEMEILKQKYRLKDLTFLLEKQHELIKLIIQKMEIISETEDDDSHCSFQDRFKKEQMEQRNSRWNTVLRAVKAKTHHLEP
Procedure: (§2) Human embryonic kidney 293 (HEK293) cells were cultured in DMEM containing 10% (vol/vol) heat-inactivated fetal bovine serum, 100 units ml^−1 penicillin–streptomycin and 2 mM L-glutamine at 37 °C in a humidity-controlled sterile incubator with 5% CO2. All cell culture reagents were purchased from Life Technologies. HEK293 cells were transfected transiently with the corresponding plasmids using lipofectamine 2000 (Life Technologies). Transfection efficiency was monitored by co-transfecting EGFP plasmid which codes for the enhanced green fluorescent protein. Electrophysiological recordings were performed between 24 and 36 h after transfection.
as §1

[8] = target: T3, rTRPA1 (Rattus norvegicus, UniProt Q6RI86); assay: Whole-cell patch-clamp, HEK293 cells expressing rTRPA1; type: cell-based
T3 construct: expressed in transfected cells; host or cells: HEK293, transient
T3 sequence (Q6RI86 whole entry): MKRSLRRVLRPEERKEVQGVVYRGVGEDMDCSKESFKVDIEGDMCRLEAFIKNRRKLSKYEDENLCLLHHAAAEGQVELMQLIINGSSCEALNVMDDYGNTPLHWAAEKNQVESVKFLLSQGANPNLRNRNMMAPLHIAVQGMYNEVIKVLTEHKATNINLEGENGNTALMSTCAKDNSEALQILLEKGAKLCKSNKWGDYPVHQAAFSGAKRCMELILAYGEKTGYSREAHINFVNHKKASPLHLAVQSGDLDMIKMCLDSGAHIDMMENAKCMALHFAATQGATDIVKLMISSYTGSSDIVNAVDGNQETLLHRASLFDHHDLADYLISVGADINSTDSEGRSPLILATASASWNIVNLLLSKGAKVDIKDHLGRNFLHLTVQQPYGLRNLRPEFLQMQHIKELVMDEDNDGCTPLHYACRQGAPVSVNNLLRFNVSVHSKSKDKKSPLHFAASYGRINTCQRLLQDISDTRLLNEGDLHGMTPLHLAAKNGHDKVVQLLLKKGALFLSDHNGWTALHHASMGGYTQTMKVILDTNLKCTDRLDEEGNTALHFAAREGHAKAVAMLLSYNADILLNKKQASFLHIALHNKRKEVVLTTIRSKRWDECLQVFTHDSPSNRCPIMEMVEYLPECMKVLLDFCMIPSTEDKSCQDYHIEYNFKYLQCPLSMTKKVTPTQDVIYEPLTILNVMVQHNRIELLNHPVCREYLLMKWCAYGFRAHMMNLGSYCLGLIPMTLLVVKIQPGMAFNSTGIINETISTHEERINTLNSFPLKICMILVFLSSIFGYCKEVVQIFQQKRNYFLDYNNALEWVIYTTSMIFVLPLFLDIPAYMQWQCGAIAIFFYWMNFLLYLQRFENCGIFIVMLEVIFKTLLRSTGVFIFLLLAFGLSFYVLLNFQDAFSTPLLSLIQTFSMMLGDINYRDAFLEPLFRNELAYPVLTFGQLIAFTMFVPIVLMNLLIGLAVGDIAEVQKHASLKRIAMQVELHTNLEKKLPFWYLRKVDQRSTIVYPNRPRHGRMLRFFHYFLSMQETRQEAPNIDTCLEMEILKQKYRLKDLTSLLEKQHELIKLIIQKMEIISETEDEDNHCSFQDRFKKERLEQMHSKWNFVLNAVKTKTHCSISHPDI
Procedure: as §2, §1

[9] = 30 μM, calcium-free external solution
[10] = HC030031 200 mg kg−1 per oral, 1 h before test

CCOC(=O)CC(SP(=S)(OC)OC)C(=O)OCC (stereo not drawn) [malathion, S-[1,2-bis (ethoxycarbonyl)ethyl] O, O-dimethyl phosphorodithioate]
nerve fiber damage around the injection site (TEM) ([1]; WT mice, plantar injection, 5% AITC or 30% malathion): damage of the myelin sheath | damage of spinal cord and sciatic nerve (TEM) ([2]; 21 days after exposure): severely damaged the spinal cord and sciatic nerve | action potential firing in WT small-diameter neurons ([3]; 100 μM): bursts of action potentials | currents in neurons from Trpa1−/− mice ([3]; Trpa1−/− neurons, 17/17): failed to induce currents | neurons with robust inward currents ([3]; small-diameter neurons from WT mice, 7/18): ~ 39% | EC50 [4]: 14.2 ± 1.02 µM | activation of TRPV4 [5]: could not activate | nociception-like behavior in Trpa1−/− mice ([6]; Trpa1−/− mice, 30% malathion intraplantar): not observed | nocifensive behavior (paw-licking) after plantar injection ([6]; WT mice, AITC 10 μl 5%, malathion 10 μl 30%, intraplantar): nociception-like behavior | activation of hTRPA1 whole-cell currents [7, 9]: large activation current | EC50 ([7]; whole-cell patch-clamp): 14.2 ± 1.84 µM | activation of rTRPA1 whole-cell currents [8, 9]: large activation current

CC(C)c1ccc(NC(=O)Cn2cnc3c2c(=O)n(C)c(=O)n3C)cc1 [HC030031]
effect on malathion-induced myelin sheath damage (TEM) ([1]; HC030031 pretreatment): significantly protected the myelin sheath | effect on TOCP- or malathion-induced nerve injuries (TEM) ([2]; HC030031 100 mg kg−1): significantly reduced | effect on AITC- or malathion-elicited action potentials ([3]; 10 μM HC030031): suppressed | inhibition of malathion-induced inward currents in DRG neurons ([3]; 10 μM HC030031): inhibited | effect on AITC-evoked nocifensive behavior [6, 10]: suppressed | effect on malathion-evoked nociception-like behavior [6, 10]: blocked | block of agonist-elicited hTRPA1 currents [7]: blocked; also recorded: inhibited | block of agonist-elicited rTRPA1 currents ([8]; 10 μM HC030031, malathion or TOCP as agonist): blocked
